Results published in patent US12520844B2 (Bayer Aktiengesellschaft, priority 2020, dated 2026).

Assay: Measurement of Log P values by HPLC on reversed phase columns (EEC directive 79/831 Annex V.A8)
Format: physicochemical
Experimental: Measurement of Log P values as provided herein was performed according to EEC directive 79/831 Annex V.A8 by HPLC (High Performance Liquid Chromatography) on reversed phase columns with the following methods: • ^[a] Log P value is determined by measurement of LC-UV, in an acidic range, with 0.1% formic acid in water and acetonitrile as eluent (linear gradient from 10% acetonitrile to 95% acetonitrile). • ^[b] Log P value is determined by measurement of LC-UV, in a neutral range, with 0.001 molar ammonium acetate solution in water and acetonitrile as eluent (linear gradient from 10% acetonitrile to 95% acetonitrile). • ^[c] Log P value is determined by measurement of LC-UV, in an acidic range, with 0.1% phosphoric acid and acetonitrile as eluent (linear gradient from 10% acetonitrile to 95% acetonitrile).
If more than one Log P value is available within the same method, all the values are given and separated by “+”.
Calibration was done with straight-chain alkan2-ones (with 3 to 16 carbon atoms) with known Log P values (measurement of Log P values using retention times with linear interpolation between successive alkanones). Lambda-max-values were determined using UV-spectra from 200 nm to 400 nm and the peak values of the chromatographic signals

For `Cc1ccc(C(F)(F)CNC(=O)c2nc(C3CC3)nnc2Oc2cccc(C(F)(F)F)c2)c(C)c1` [Compound I-121], which LogP is on record?
The LogP was 4.74^[a].

For `Cc1ccc(C(F)(F)CNC(=O)c2nc(C)ncc2Oc2cccc(-n3ccc(C(F)(F)F)n3)c2)c(C)c1` [Compound I-122], which LogP is on record?
Its LogP is 4.54^[a].

For `CCON(Cc1ccccc1)C(=O)c1nc(C)ncc1Oc1cccc(C2CC2)c1F` [Compound I-123], which LogP is on record?
Its LogP is 3.97^[a].

With `Cc1ncc(Oc2cccc(C3CC3)c2F)c(C(=O)NCCc2ccc3c(c2)OCO3)n1` [Compound I-124] as the compound, how does the LogP read?
Its LogP is 3.34^[a].

With `CSc1cccc(Oc2cnc(C)nc2C(=O)NCC(F)(F)c2ccc(C)cc2C)c1` [Compound I-126] as the compound, how does the LogP read?
Its LogP is 4.11^[a].

Which LogP does the source give for `Cc1ccc(C(F)(F)CNC(=O)c2nc(C)ncc2Oc2ccc3c(c2)CCO3)c(C)c1` [Compound I-128] here?
The LogP was 3.59^[a].

With `Cc1ccc(C(F)(F)CNC(=O)c2nc(C)ncc2Oc2ccc(F)c(Cl)c2)c(C)c1` [Compound I-129] as the compound, how does the LogP read?
The LogP was 4.20^[a].

For `Cc1ccc(C(F)(F)CNC(=O)c2nc(C3CC3)nnc2Oc2cccc(C(F)(F)F)c2)c(Cl)c1` [Compound I-130], which LogP is on record?
Its LogP is 4.66^[a].

With `Cc1ccc(C(F)(F)CNC(=O)c2nc(C3CC3)nnc2Oc2cccc(Cl)c2F)c(C)c1` [Compound I-131] as the compound, how does the LogP read?
Its LogP is 4.62^[a].

For `Cc1ccc(C(F)=CNC(=O)c2nc(C3CC3)nnc2Oc2cccc(Br)c2)c(C)c1` [Compound I-132], which LogP is on record?
The LogP was 4.97^[a].

With `Cc1ncc(Oc2cccc(C3CC3)c2F)c(C(=O)NCCc2csc(C)c2C)n1` [Compound I-134] as the compound, how does the LogP read?
Its LogP is 4.10^[a].
